# Test results as given in patent publication US20250332081A1, “A Composition Against Osmotic Stress” (ELC Management LLC, priority 2022, published 2025).
# System: Normal Human Epidermal Keratinocytes (NHEK)
# Assay: Hyper-osmotic stress model in NHEKs: cell protection (alamarBlue viability) and combination index
# Format: cell-based
# Conditions: 48 hrs, hyper-osmotic stress 450 mOsm
# Experimental: 1.2 g betaine (RDS 51-6709) was dissolved in 100 ml water with magnetic stirring for complete dissolution (Stock concentration 1.2%). 0.5 g Roselle extract (Hibiscus Sabdariffa Extract, Lucas Meyer Cosmetics Company) was dissolved in 10 mL water to achieve 5% stock solution. Then the solutions were filtrated with 0.22 um filter to keep sterile.
# Normal Human Epidermal Keratinocytes (NHEK, FC-0007) purchased from Lifeline Cell Technology were incubated at 37° C., 95% humidity and 5% CO2 in keratinocyte cell culture medium (DermaLife K Keratinocyte Medium Complete Kit, LL-0007, Lifeline cell technology) supplemented with growth factors and 1% Penicillin/Streptomycin (Thermo Fischer, Waltham, MA, USA). Cells were passaged upon reaching 80% confluency.
# NHEKs were plated in 96-well plates at 4,000/well density. After 24 h of incubation, the cells would have reached ˜80% confluency. 4.38 mg/mL NaCL was added in the culture media to achieve 450 osmolarity, on top of a baseline ˜300 mOsm.
# On day 1, NHEKs were seeded with culture medium (DermaLife K Keratinocyte Medium Complete Kit) in a 96-well plate at 3,000 cells/well. After 24 h adherence, a 2-active combination experiment was carried out in vitro. 21 data points were used for dose and effect, including 4 concentrations for betaine, 7 concentrations for roselle extract and their combination as below (Table 1). Cells were treated with the combination of these actives for 48 hrs (Separately diluted with cell culture medium, followed by mixing together to treat cells). Then cells were washed with Dulbecco's phosphate buffered saline (DPBS) twice, and then incubated in medium with 10% alamarBlue™ Cell Viability Reagent (Thermo Fisher, Waltham, MA, USA) for 120 minutes. The incubated plates were measured for fluorescence using a Perkin Elmer plate reader (VICTOR Nivo), at Ex 530 nm/Em 615 nm. The value are recorded as RFU value.
# The protective effect can be determined by Cell viability ratio (%) and Cell protection rate (%) as follows.
# According to the theory proposed by Chou and Talalay (TING-CHAO CHOU. Theoretical Basis, Experimental Design, and Computerized Simulation of Synergism and Antagonism in Drug Combination Studies. Pharmacol Rev 58:621-681, 2006), the level of synergism can be typically measured and quantified by the drug combination index (CI, a quantitative measure of drug combination effects) from experimental dose-response data. The concentration of each compound, the protection ratio of each compound or the combo of these two compounds data were input into computer for automated analysis using CalcuSyn software. […]
# Experiments were conducted at four levels of betaine and seven levels of roselle extract. […] Synergy value is classified based on the calculated combination index.
smiles,measurement,setting,value
"C[N+](C)(C)CC(=O)[O-] [Betaine, trimethylglycine]",Protective Ratio (%),betaine 0.03% alone,8.924%
same,Protective Ratio (%),betaine 0.06% alone,19.658%
same,Protective Ratio (%),betaine 0.09% alone,15.259%
same,Protective Ratio (%),betaine 0.1% alone,17.451%
